Measured values taken from ChEMBL document CHEMBL1208771, “Improvement of both plasmepsin inhibitory activity and antimalarial activity by 2-aminoethylamino substitution” (Bioorg Med Chem Lett, 2010).

Legend:
[1] = target: Plasmepsin II (Plasmodium falciparum, UniProt P46925); test: Inhibition of Plasmodium falciparum plasmepsin-2
[2] = tested on: Plasmodium falciparum; test: Antiplasmodial activity against Plasmodium falciparum D6 infected in human erythrocytes by SYBR green I fluorescence assay; type: functional, organism-based
[3] = tested on: Plasmodium falciparum; test: Ratio of compound EC50 to chloroquine EC50 for Plasmodium falciparum D6 infected in human erythrocytes; type: functional

Plasmepsin II, sequence (P46925 whole entry): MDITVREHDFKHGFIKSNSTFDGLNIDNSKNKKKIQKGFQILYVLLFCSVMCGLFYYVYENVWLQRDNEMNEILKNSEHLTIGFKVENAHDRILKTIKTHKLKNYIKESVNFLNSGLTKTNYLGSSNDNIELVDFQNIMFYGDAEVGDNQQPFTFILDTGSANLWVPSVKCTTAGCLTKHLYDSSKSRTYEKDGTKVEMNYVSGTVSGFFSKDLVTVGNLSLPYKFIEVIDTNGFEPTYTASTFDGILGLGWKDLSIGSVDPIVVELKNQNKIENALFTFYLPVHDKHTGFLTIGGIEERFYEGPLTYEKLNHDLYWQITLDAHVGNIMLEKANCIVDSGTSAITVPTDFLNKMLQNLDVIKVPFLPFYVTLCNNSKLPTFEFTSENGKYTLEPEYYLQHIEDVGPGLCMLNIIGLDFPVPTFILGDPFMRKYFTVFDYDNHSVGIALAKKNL

Ki [1] [nM] | EC50 [2] [nM] | Structure (SMILES) | Ratio EC50 [3]
5.1 | 1600 | CCN(CC)CCNc1cc(C)c(OCC(=O)N[C@@H](Cc2ccccc2)[C@H](O)C(=O)N2CSC(C)(C)[C@H]2C(=O)N[C@H]2c3ccccc3C[C@H]2O)c(C)c1 | –
6.5 | 290 | Cc1cc(NCCN)cc(C)c1OCC(=O)N[C@@H](Cc1ccccc1)[C@H](O)C(=O)N1CSC(C)(C)[C@H]1C(=O)N[C@H]1c2ccccc2C[C@H]1O | –
< 0.1 | 460 | CCN(CCN)c1cc(C)c(OCC(=O)N[C@@H](Cc2ccccc2)[C@H](O)C(=O)N2CSC(C)(C)[C@H]2C(=O)N[C@H]2c3ccccc3C[C@H]2O)c(C)c1 | –
17 | 2000 | Cc1cc(NCCN(C)C)cc(C)c1OCC(=O)N[C@@H](Cc1ccccc1)[C@H](O)C(=O)N1CSC(C)(C)[C@H]1C(=O)N[C@H]1c2ccccc2C[C@H]1O | –
< 0.1 | 360 | Cc1cc(N(C)CCN(C)C)cc(C)c1OCC(=O)N[C@@H](Cc1ccccc1)[C@H](O)C(=O)N1CSC(C)(C)[C@H]1C(=O)N[C@H]1c2ccccc2C[C@H]1O | –
4.2 | 790 | CCNCCN(CC)c1cc(C)c(OCC(=O)N[C@@H](Cc2ccccc2)[C@H](O)C(=O)N2CSC(C)(C)[C@H]2C(=O)N[C@H]2c3ccccc3C[C@H]2O)c(C)c1 | –
9.1 | 1400 | CNCCNc1cc(C)c(OCC(=O)N[C@@H](Cc2ccccc2)[C@H](O)C(=O)N2CSC(C)(C)[C@H]2C(=O)N[C@H]2c3ccccc3C[C@H]2O)c(C)c1 | –
10 | 1100 | CCN(CC)CCN(CC)c1cc(C)c(OCC(=O)N[C@@H](Cc2ccccc2)[C@H](O)C(=O)N2CSC(C)(C)[C@H]2C(=O)N[C@H]2c3ccccc3C[C@H]2O)c(C)c1 | –
– | 5000 | Cc1cccc(C)c1OCC(=O)N[C@@H](Cc1ccccc1)[C@H](O)C(=O)N1CSC(C)(C)[C@H]1C(=O)N[C@H]1c2ccccc2C[C@H]1O | –
8.5 | 1400 | Cc1cc(N(C)CCN)cc(C)c1OCC(=O)N[C@@H](Cc1ccccc1)[C@H](O)C(=O)N1CSC(C)(C)[C@H]1C(=O)N[C@H]1c2ccccc2C[C@H]1O | –

Structure (SMILES) | Ki [1] [nM] | EC50 [2] [nM] | Ratio EC50 [3]
CCNCCNc1cc(C)c(OCC(=O)N[C@@H](Cc2ccccc2)[C@H](O)C(=O)N2CSC(C)(C)[C@H]2C(=O)N[C@H]2c3ccccc3C[C@H]2O)c(C)c1 | 0.68 | 220 | –
CCN(CC)CCCC(C)Nc1ccnc2cc(Cl)ccc12 (stereo unspecified) [CHLOROQUINE] | – | 20 | –
Cc1cc(NCc2ccccn2)cc(C)c1OCC(=O)N[C@@H](Cc1ccccc1)[C@H](O)C(=O)N1CSC(C)(C)[C@H]1C(=O)N[C@H]1c2ccccc2C[C@H]1O | – | 560 | –
CNCCN(C)c1cc(C)c(OCC(=O)N[C@@H](Cc2ccccc2)[C@H](O)C(=O)N2CSC(C)(C)[C@H]2C(=O)N[C@H]2c3ccccc3C[C@H]2O)c(C)c1 | 1.2 | 190 | 10
